Target: T1, human Glucose-dependent Insulinotropic Polypeptide Receptor (hGIPR) (Homo sapiens, UniProt P48546)
T1 sequence (P48546 22-466): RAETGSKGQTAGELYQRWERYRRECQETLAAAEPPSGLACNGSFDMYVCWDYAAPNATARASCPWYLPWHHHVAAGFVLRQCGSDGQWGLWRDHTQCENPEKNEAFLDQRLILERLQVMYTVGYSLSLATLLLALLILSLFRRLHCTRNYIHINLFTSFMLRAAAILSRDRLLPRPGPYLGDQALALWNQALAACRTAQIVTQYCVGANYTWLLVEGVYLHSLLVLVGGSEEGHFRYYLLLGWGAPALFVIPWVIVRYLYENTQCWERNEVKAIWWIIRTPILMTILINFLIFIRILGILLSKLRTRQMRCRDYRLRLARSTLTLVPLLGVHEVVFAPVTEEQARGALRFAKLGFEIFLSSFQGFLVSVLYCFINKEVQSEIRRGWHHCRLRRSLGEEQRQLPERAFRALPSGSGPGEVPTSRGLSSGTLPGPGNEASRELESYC
Test: Functional in vitro GIPR antagonist potency assay (intracellular cAMP, HTRF, hGIP stimulation at EC80)
Type: cell-based
Conditions: not given
Protocol: Example AA. Functional In Vitro GIPR Antagonist Potency Assay
The functional in vitro antagonist potency for test compounds was determined by monitoring intracellular cyclic adenosine monophosphate (cAMP) levels in Chinese hamster ovary (CHO)—K1 cells stably expressing the human Glucose-dependent Insulinotropic Polypeptide Receptor (hGIPR). Following agonist activation, hGIPR associates with the G-protein complex causing the Gas subunit to exchange bound guanosine diphosphate (GDP) for guanosine triphosphate (GTP), followed by dissociation of the Gas-GTP complex. The activated Gas subunit can couple to downstream effectors to regulate the levels of second messengers or cAMP within the cell. Thereby, determination of intracellular cAMP levels allows for pharmacological characterization. Intracellular cAMP levels are quantitated using a homogenous assay utilizing the Homogeneous Time Resolved Fluorescence (HTRF) technology from Perkin Elmer. The method is a competitive immunoassay between native cAMP produced by the cells and cAMP labelled with the acceptor dye, d2. The two entities compete for binding to a monoclonal anti-cAMP antibody labeled with cryptate. The specific signal is inversely proportional to the concentration of cAMP in the cells.
Test compounds were solubilized to a concentration of 30 mM in 100% dimethyl sulfoxide (DMSO). An 11-point dilution series using 1 in 3.162-fold serial dilutions was created in 100% DMSO with a top concentration of 8 mM. The serially diluted compound was spotted with an Echo Acoustic liquid handler (Beckman Coulter) into a 384-well assay plate (Corning, Cat No. 3824) at 50 nL/well with duplicate points at each concentration, at a 200× final assay concentration (FAC). The final compound concentration range in the assay was 40 μM to […], with a final DMSO concentration of 0.5%.
Frozen assay-ready vials (at 1×10^7 cells/vial) of CHO-K1 cells stably expressing the Gs-coupled human GIPR receptor (Eurofins, DiscoverX, Cat No. 95-0146C2) were thawed, counted, and resuspended in assay buffer consisting of Hank's Balanced Salt Solution (HBSS, Lonza Cat No. 10-527) containing 20 mM (4-(2-hydroxyethyl)-1-piperazineethanesulfonic acid (HEPES, Lonza, Cat No. 17-737E), 0.1% bovine serum albumin (BSA, Sigma, Cat No. A7979), and 200 μM 3-isobutyl-1-methylxanthine (IBMX, Sigma, Cat No. 15879) at a density of 4×10^5 cells/mL. Cells were added to assay plate (5 μL/well of 4×10^5 cells/mL stock for 2,000 cells/well final) containing 50 nL of 200×FAC test compound, and incubated at 37° C. (95% O2: 5% CO2) for 2 hours, with micro-clime lids (Labcyte, Cat No. LLS-0310). Following the 2-hour cell and compound incubation, a stimulation mix comprised of hGIPR agonist human glucose-dependent insulinotropic polypeptide (hGIP, full length, Sigma Cat No. G2269) in assay buffer/0.1% DMSO was added to the assay plate (5 μL/well) at an estimated EC80 FAC (based on previous hGIP agonist curves) and incubated for another 30 minutes with micro-clime lids at 37° C. (95% O2: 5% CO2), after which intracellular cAMP levels were quantified as per Perkin Elmer's protocol (5 μL of d2 and then 5 μL cryptate, incubated for 1 hour at room temperature). Emission spectra of samples were measured on a Pherastar plate reader (BMG Labtech Inc) using a HTRF protocol (excitation, 320 nm; emission, 665 nm/620 nm).
(95% O2: 5% CO2), with a micro-clime lid. Following the 2-hour cell and DMSO incubation, a hGIP concentration response curve at 2×FAC (12-point curve using 1 in 3 serial dilutions, with triplicate points at each concentration, 100 nM final top concentration) in assay buffer/1% DMSO was added (5 μL/well) and incubated for a further 30 minutes with a micro-clime lid at 37° C. (95% O2: 5% CO2), after which intracellular cAMP levels were quantified and samples measured as described previously. Experiments passed quality control if the agonist concentration used for stimulation fell between the on-the-day EC50-EC90. […]

With Cc1cc(-n2ccc(NC(=O)[C@H]3CCCN3C(=O)Nc3ccc(C(F)(F)F)c(F)c3)n2)ccc1C(=O)O [Example 9, 4-{3-[(1-{[3-Fluoro-4-(trifluoromethyl)phenyl]carbamoyl}-D-prolyl)amino]-1H-pyrazol-1-yl}-2-methylbenzoic Acid] as the compound, how does the IC50 read?
Its IC50 is 19 nM.

With Cc1cc(-n2ccc(NC(=O)[C@H]3CCCN3C(=O)Nc3ccc(OC(F)(F)F)cc3)n2)ccc1C(=O)O [Example 11, 2-Methyl-4-{3-[(1-{[4-(trifluoromethoxy)phenyl]carbamoyl}-D-prolyl)amino]-1H-pyrazol-1-yl}benzoic Acid] as the compound, how does the IC50 read?
Its IC50 is 11 nM.

Which IC50 does the source give for CC(C)c1ccc(NC(=O)N2CCC[C@@H]2C(=O)Nc2ccn(-c3ccc(C(=O)O)cn3)n2)cc1F [Example 3, 6-{3-[(1-{[3-Fluoro-4-(propan-2-yl)phenyl]carbamoyl}-D-prolyl)amino]-1H-pyrazol-1-yl}pyridine-3-carboxylic Acid] here?
The IC50 was 20 nM.

Same assay, conditions: geometric mean; CHO-K1 cells stably expressing human GIPR, cAMP after hGIP stimulation at EC80

How did the IC50 turn out when Cc1cc(NC(=O)N2CCC[C@@H]2C(=O)Nc2ccn(-c3ccc(C(=O)O)cc3)n2)ccc1C(C)C [Example 26, 4-{3-[(1-{[3-methyl-4-(propan-2-yl)phenyl]carbamoyl}-D-prolyl)amino]-1H-pyrazol-1-yl}benzoic acid] was run?
Its IC50 is 64 nM.

For Cc1cc(-n2ccc(NC(=O)[C@H]3CCCN3C(=O)COc3ccc(C(F)(F)F)cc3)n2)ccc1C(N)=O [Example 60, N-[1-(4-carbamoyl-3-methylphenyl)-1H-pyrazol-3-yl]-1-{[4-(trifluoromethyl)phenoxy]acetyl}-D-prolinamide], which IC50 is on record?
The IC50 was 210 nM.

For CC(C)c1ccc(NC(=O)N2CCC[C@@H]2C(=O)Nc2ccn(-c3ccc(C(N)=O)cc3F)n2)cc1 [Example 36], which IC50 is on record?
The IC50 was 42 nM.

How did the IC50 turn out when Cc1cc(-n2ccc(NC(=O)[C@H]3CCCN3C(=O)Nc3ccc(C(C)C)c(C)c3)n2)ccc1C(N)=O [Example 15, (2R)—N^2-[1-(4-Carbamoyl-3-methylphenyl)-1H-pyrazol-3-yl]-N^1-[3-methyl-4-(propan-2-yl)phenyl]pyrrolidine-1,2-dicarboxamide] was run?
The IC50 was 41 nM.

How did the IC50 turn out when CC(C)c1ccc(NC(=O)N2CCC[C@@H]2C(=O)Nc2ccn(-c3cccc(C(=O)O)c3)n2)cc1 [Example 20, 3-{3-[(1-{[4-(propan-2-yl)phenyl]carbamoyl}-D-prolyl)amino]-1H-pyrazol-1-yl}benzoic acid] was run?
The IC50 was 240 nM.

Which IC50 does the source give for Cc1cc(-n2ccc(NC(=O)[C@H]3CCCN3C(=O)Nc3ccc(OC(F)(F)F)cc3)n2)c(F)cc1C(=O)O [Example 59, 5-Fluoro-2-methyl-4-{3-[(1-{[4-(trifluoromethoxy)phenyl]carbamoyl}-D-prolyl)amino]-1H-pyrazol-1-yl}benzoic Acid] here?
Its IC50 is 11 nM.

For Cc1cc(-n2ccc(NC(=O)[C@H]3CCCN3C(=O)CCc3ccc(C(F)(F)F)cc3)n2)ccc1C(=O)O [Example 18, 2-Methyl-4-{3-[(1-{3-[4-(trifluoromethyl)phenyl]propanoyl}-D-prolyl)amino]-1H-pyrazol-1-yl}benzoic Acid], which IC50 is on record?
The IC50 was 250 nM.

How did the IC50 turn out when Cc1cc(-n2ccc(NC(=O)[C@H]3CCCN3C(=O)Nc3ccc(C(F)(F)F)cc3)n2)ccc1C(N)=O [Example 49] was run?
The IC50 was 240 nM.

Which IC50 does the source give for Cc1cc(-n2ccc(NC(=O)[C@H]3CCCN3C(=O)NCc3ccc(C4CC4)cc3)n2)ccc1C(=O)O [Example 47, 4-{3-[(1-{[(4-cyclopropylphenyl)methyl]carbamoyl}-D-prolyl)amino]-1H-pyrazol-1-yl}-2-methylbenzoic acid] here?
The IC50 was 220 nM.

Which IC50 does the source give for CC(C)c1ccc(NC(=O)N2CCC[C@@H]2C(=O)Nc2ccn(-c3ccc(C(N)=O)cc3)n2)cc1 [Example 35] here?
The IC50 was 120 nM.

Cc1cc(-n2ccc(NC(=O)[C@H]3CCCN3C(=O)NCc3ccc(C(F)(F)F)c(F)c3)n2)ccc1C(=O)O [Example 48, 4-(3-{[1-{{[3-fluoro-4-(trifluoromethyl)phenyl]methyl}carbamoyl)-D-prolyl]amino}-1H-pyrazol-1-yl)-2-methylbenzoic acid] was tested. Which IC50 did it give?
The IC50 was 150 nM.

CC(C)c1ccc(NC(=O)N2CCC[C@@H]2C(=O)Nc2ccn(-c3ccc(C(=O)O)c(F)c3)n2)cc1 [Example 32, 2-fluoro-4-{3-[(1-{[4-(propan-2-yl)phenyl]carbamoyl}-D-prolyl)amino]-1H-pyrazol-1-yl}benzoic acid] was tested. Which IC50 did it give?
The IC50 was 280 nM.

Which IC50 does the source give for CC(C)c1ccc(NC(=O)N2CCC[C@@H]2C(=O)Nc2ccn(-c3ccc(O)cc3F)n2)cc1 [Example 44] here?
Its IC50 is 34 nM.

For Cc1cc(-n2ccc(NC(=O)[C@H]3CCCN3C(=O)Nc3ccc(OC(F)(F)F)cc3)n2)ccc1C(N)=O [Example 41], which IC50 is on record?
The IC50 was 98 nM.

Which IC50 does the source give for Cc1cc(-n2ccc(NC(=O)[C@H]3CCCN3C(=O)CNc3ccc(C(F)(F)F)cc3)n2)ccc1C(=O)O [Example 19, N-[4-(Trifluoromethyl)phenyl]glycyl-N-[1-(4-carboxy-3-methylphenyl)-1H-pyrazol-3-yl]-D-prolinamide] here?
Its IC50 is 78 nM.

How did the IC50 turn out when CC(C)c1ccc(NC(=O)N2CCC[C@@H]2C(=O)Nc2ccn(-c3cc(F)c(O)c(F)c3)n2)cc1 [Example 43] was run?
Its IC50 is 5.3 nM.

With C=C(C)c1ccc(NC(=O)N2CCC[C@@H]2C(=O)Nc2ccn(-c3ccc(C(=O)O)c(C)c3)n2)cc1C [Example 58, 2-methyl-4-{3-[(1-{[3-methyl-4-(prop-1-en-2-yl)phenyl]carbamoyl}-D-prolyl)amino]-1H-pyrazol-1-yl}benzoic acid] as the compound, how does the IC50 read?
The IC50 was 8.8 nM.

With Cc1cc(-n2ccc(NC(=O)[C@H]3CCCN3C(=O)COc3ccc(C(F)(F)F)c(F)c3)n2)ccc1C(=O)O [Example 67, 4-{3-[(1-{[3-fluoro-4-(trifluoromethyl)phenoxy]acetyl}-D-prolyl)amino]-1H-pyrazol-1-yl}-2-methylbenzoic acid] as the compound, how does the IC50 read?
Its IC50 is 61 nM.

How did the IC50 turn out when Cc1cc(-n2ccc(NC(=O)[C@H]3CCCN3C(=O)Nc3cc(F)c(C(F)(F)F)c(F)c3)n2)ccc1C(=O)O [Example 51, 4-{3-[(1-{[3,5-difluoro-4-(trifluoromethyl)phenyl]carbamoyl}-D-prolyl)amino]-1H-pyrazol-1-yl}-2-methylbenzoic acid] was run?
Its IC50 is 35 nM.

Cc1cc(-n2ccc(NC(=O)[C@H]3CCCN3C(=O)COc3ccc(C(F)(F)F)cc3)n2)ccc1C(=O)O [Example 17, 2-Methyl-4-{3-[(1-{[4-(trifluoromethyl)phenoxy]acetyl}-D-prolyl)amino]-1H-pyrazol-1-yl}benzoic Acid] was tested. Which IC50 did it give?
Its IC50 is 36 nM.

With Cc1cc(NC(=O)N2CCC[C@@H]2C(=O)Nc2ccn(-c3ccc(C(=O)O)cc3)n2)ccc1C(F)(F)F [Example 31, 4-{3-[(1-{[3-methyl-4-(trifluoromethyl)phenyl]carbamoyl}-D-prolyl)amino]-1H-pyrazol-1-yl}benzoic acid] as the compound, how does the IC50 read?
The IC50 was 24 nM.

How did the IC50 turn out when CC(C)c1ccc(NC(=O)N2CCC[C@@H]2C(=O)Nc2ccn(-c3cc(F)c(O)c(F)c3)n2)cc1F [Example 14, (2R)—N^2-[1-(3,5-Difluoro-4-hydroxyphenyl)-1H-pyrazol-3-yl]-N^1-[3-fluoro-4-(propan-2-yl)phenyl]pyrrolidine-1,2-dicarboxamide] was run?
Its IC50 is 7.2 nM.

— patent publication US20250326741A1, “GLUCOSE-DEPENDENT INSULINOTROPIC POLYPEPTIDE RECEPTOR ANTAGONISTS AND USES THEREOF” (Pfizer Inc., priority 2024, published 2025)
